Test results published in US8808715B1, “Methods and compositions for modulating keratinocyte function” (Georgia Regents Research Institute, Inc, priority 2004, dated 2014).

Columns and labels:
Assay type in all cases: cell-based, mouse
keratin 5 promoter = assay: Co-transfection analysis, keratin 5 promoter-luciferase reporter; conditions: 1 mM calcium, 24 hours
Procedure: FIGS. 15A-B illustrate that glycerol, but not xylitol or sorbitol, inhibits DNA synthesis and enhances the inhibitory effect of an elevated extracellular Ca^2+ concentration. (A) Near-confluent keratinocytes were incubated for 24 hours with 0.02 or 0.1% glycerol and DNA synthesis measured as the incorporation of [^3H] thymidine incorporation into DNA. (B) Near-confluent keratinocytes were incubated for 24 hours with the indicated concentrations of glycerol (G, squares) or equivalent concentrations of xylitol (X, circles) in SFKM containing 25 μM (control; open symbols) or 125 μM Ca^2+ (Ca^2+; closed symbols). (C) Near-confluent keratinocytes were incubated for 24 hours with the indicated concentrations of glycerol (G) or equivalent concentrations of sorbitol (S, triangles) in SFKM containing 25 μM (control; open symbols) or 125 μM Ca^2+ (Ca^2+; closed symbols) for 24 hours. [^3H]Thymidine incorporation into DNA was then determined. Values represent the means±SEM of 4 to 5 separate experiments performed in duplicate; *p<0.05, **p<0.01 versus the control value, †p<0.05 versus the value in the presence of Ca^2+ alone. […] After 24 hours cells were refed with medium containing no addition (control) or 0.2% glycerol for an additional 24 hours. Luciferase activity was then measured using a Dual Luciferase kit as directed by the manufacturer. […] The blots were quantified using the Kodak molecular imaging software. […]
The keratin 5 and keratin 10 promoter-luciferase constructs were provided by of Dr. Bogi Andersen (University of California, Irvine, Calif.); the involucrin promoter-luciferase construct was provided by Dr. Daniel Bikle (University of California, San Francisco, Calif.). […] Luciferase activity was then measured using the Dual Luciferase Reporter Assay kit (Promega, Madison, Wis.) as directed by the manufacturer.

involucrin = assay: Involucrin protein levels by western analysis; conditions: 24 hours; PG liposomes in 25 uM Ca2+ medium, or 125 uM Ca2+ alone; normalized to actin
Procedure: FIGS. 15A-B illustrate that glycerol, but not xylitol or sorbitol, inhibits DNA synthesis and enhances the inhibitory effect of an elevated extracellular Ca^2+ concentration. (A) Near-confluent keratinocytes were incubated for 24 hours with 0.02 or 0.1% glycerol and DNA synthesis measured as the incorporation of [^3H] thymidine incorporation into DNA. (B) Near-confluent keratinocytes were incubated for 24 hours with the indicated concentrations of glycerol (G, squares) or equivalent concentrations of xylitol (X, circles) in SFKM containing 25 μM (control; open symbols) or 125 μM Ca^2+ (Ca^2+; closed symbols). […] [^3H]Thymidine incorporation into DNA was then determined. […] Luciferase activity was then measured using a Dual Luciferase kit as directed by the manufacturer. […] The blots were quantified using the Kodak molecular imaging software. […]
PG was also examined for its ability to stimulate a marker of keratinocyte differentiation. Keratinocytes were treated with or without PG liposomes in 25 uM Ca^2+ (control) or 125 uM Ca^2+-containing medium for 24 hours and cell lysates were analyzed for involucrin protein levels (normalized to actin as a loading control) (FIG. 15E).

primary keratinocytes = assay: [3H]Glycerol uptake; conditions: 24 hours
Procedure: Confluent primary keratinocytes were incubated for 30, 60, 90, 120, 300 or 600 seconds with SFKM containing 20 mM HEPES (for additional pH buffering), 1 μCi/mL [^3H]glycerol and 0.1% DMSO (control) or 100 nM PMA. Reactions were terminated by washing three times with ice-cold phosphate-buffered saline lacking divalent cations. The cells were subsequently solubilized in 0.3 M NaOH and aliquots of this extract subjected to liquid scintillation counting. Counts obtained from duplicate samples at each time point were averaged and graphed, and a linear equation was determined for each condition. Correlation coefficients obtained were typically 0.99 or greater (mean correlation coefficient for control was 0.992±0.002 and for PMA, 0.994±0.001). Slopes obtained from multiple experiments were averaged and analyzed statistically for significant differences between conditions.
The linearity of glycerol uptake determined above allowed measurement of uptake at a single time point to determine the effects of other treatments on this process. Thus, confluent keratinocytes were preincubated for 30 minutes with 0.1% DMSO (control) or 100 nM PMA prior to measuring [^3H]glycerol uptake as above but at 5 minutes only. Similarly, near-confluent primary keratinocytes were incubated for 24 hours with SFKM containing various calcium concentrations prior to measurement of radiolabeled glycerol uptake for 5 minutes.
Near-confluent keratinocyte cultures were incubated for 24 hours in SFKM (25 μM calcium) or SFKM containing 125 μM calcium (125 μM Ca^2+-SFKM) and the glycerol uptake assay performed as previously described in Zheng & Bollag (2003). Briefly, cells were incubated with SFKM containing 20 mM HEPES (for additional pH buffering) and 1 μCi/mL [^3H] glycerol for 5 minutes, since it has previously been shown that this time point is in the linear range of [^3H]glycerol uptake (Zheng & Bollag (2003). Reactions were terminated by rapidly washing three times with ice-cold phosphate-buffered saline lacking divalent cations (PBS-). Cells were then solubilized in 0.3 M NaOH and [^3H]glycerol uptake quantified by liquid scintillation spectroscopy.

[Ca+2] [calcium]
inhibition of keratin 5 promoter activity (keratin 5 promoter): 64% | involucrin protein levels, each agent alone (involucrin): not significant effect | glycerol uptake relative to control (primary keratinocytes; 500 μM calcium pretreatment): approximately equivalent to the control value | glycerol uptake relative to control (primary keratinocytes; 1 mM calcium pretreatment): slight but not significant inhibition | increase in glycerol uptake relative to the 25 μM calcium control (primary keratinocytes; pre-exposure to 125 μM calcium): 56% | increase in glycerol uptake relative to the 25 μM calcium control (primary keratinocytes; pre-exposure to 250 μM calcium): 41%
